Test results taken from ChEMBL document CHEMBL4190370, “Emerging New Targets for the Treatment of Resistant Fungal Infections” (J Med Chem, 2018).

How the values were obtained:
[1] = Inhibition of Saccharomyces cerevisiae LeuRs
Candida [2] = assay: Antifungal activity against Candida; assay type: functional
Candida [3] = assay: Antifungal activity against Candida sp.; assay type: functional
HepG2 = assay: Cytotoxicity in human HepG2 cells; assay type: cell-based
[4] = target: T1, Mediator of RNA polymerase II transcription subunit 15 (Candida glabrata (strain ATCC 2001 / CBS 138 / JCM 3761 / NBRC 0622 /NRRL Y-65) (Yeast) (Torulopsis glabrata), UniProt Q6FRS9); assay: Binding affinity to Candida glabrata Gal11A KIX domain; set-up: species or system Nakaseomyces glabratus
T1 sequence (Q6FRS9 whole entry): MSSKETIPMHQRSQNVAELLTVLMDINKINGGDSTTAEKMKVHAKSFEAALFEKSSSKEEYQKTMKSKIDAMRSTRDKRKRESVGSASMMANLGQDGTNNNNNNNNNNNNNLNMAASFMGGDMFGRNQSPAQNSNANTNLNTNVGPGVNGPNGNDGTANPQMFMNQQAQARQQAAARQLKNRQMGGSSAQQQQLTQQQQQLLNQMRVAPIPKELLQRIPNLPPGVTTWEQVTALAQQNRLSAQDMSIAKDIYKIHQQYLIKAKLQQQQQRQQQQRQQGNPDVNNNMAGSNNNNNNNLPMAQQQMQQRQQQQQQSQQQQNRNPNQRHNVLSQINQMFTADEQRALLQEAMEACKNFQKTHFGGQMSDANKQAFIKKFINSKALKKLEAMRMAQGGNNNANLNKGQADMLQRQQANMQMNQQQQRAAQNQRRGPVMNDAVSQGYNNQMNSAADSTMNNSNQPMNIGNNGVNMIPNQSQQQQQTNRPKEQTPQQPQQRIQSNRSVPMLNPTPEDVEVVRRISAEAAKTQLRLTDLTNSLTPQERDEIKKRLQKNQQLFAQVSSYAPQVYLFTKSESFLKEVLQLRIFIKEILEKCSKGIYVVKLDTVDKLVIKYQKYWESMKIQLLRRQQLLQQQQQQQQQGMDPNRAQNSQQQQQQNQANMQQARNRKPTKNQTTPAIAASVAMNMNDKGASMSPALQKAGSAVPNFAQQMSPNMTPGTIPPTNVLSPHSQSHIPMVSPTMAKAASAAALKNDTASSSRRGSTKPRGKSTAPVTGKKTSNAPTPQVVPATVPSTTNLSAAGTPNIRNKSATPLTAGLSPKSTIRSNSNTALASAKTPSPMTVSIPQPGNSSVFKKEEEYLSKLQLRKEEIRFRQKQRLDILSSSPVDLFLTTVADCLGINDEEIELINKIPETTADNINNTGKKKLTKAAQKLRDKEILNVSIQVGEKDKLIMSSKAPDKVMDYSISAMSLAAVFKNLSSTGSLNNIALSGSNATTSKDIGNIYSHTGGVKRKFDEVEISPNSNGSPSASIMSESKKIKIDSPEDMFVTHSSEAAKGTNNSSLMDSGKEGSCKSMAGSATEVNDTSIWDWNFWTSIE

[5] = Oral bioavailability in rabbit; assay type: ADME, organism-based, Oryctolagus cuniculus; conditions: in vivo
[6] = Half life in human; assay type: ADME, organism-based; conditions: in vivo
[7] = Oral bioavailability in rat; assay type: ADME, organism-based; conditions: in vivo
[8] = Inhibition of Saccharomyces cerevisiae IleRS
[9] = Oral bioavailability in dog; assay type: ADME, organism-based, Canis lupus familiaris; conditions: in vivo

OB1OCc2cc(F)ccc21 [TAVABOROLE]
IC50 [1]: 2.1 µM

CN(C)c1ccc(/C=C/c2cc(C(C)(C)C)[o+]c(C(C)(C)C)c2)cc1.[O-][Cl+3]([O-])([O-])[O-]
MIC (Candida [2]): 0.2 to 6.25 µg/mL
MIC (Candida [3]): 0.5 to 1 µg/mL

N#CCC(=O)NNC(=S)Nc1ccc(Cl)c(Cl)c1
IC50 (HepG2): 100 µM
Kd [4]: 0.32 µM

C=C1C[C@H](N)[C@H](C(=O)O)C1 [ICOFUNGIPEN]
bioavailability [5]: 100%
half-life [6]: 7 h
bioavailability [7]: 100%
Ki [8]: 1000 µM
bioavailability [9]: 100%
